Assay results: publication PMC10648349, “Aromatic Diboronic Acids as Effective KPC/AmpC Inhibitors” (Molecules, 2023)
In brackets after ≈: the same amount, converted by molar mass. Values belong to the compound of their own block, whether it stands above or below them.

Key:
[1] = test system: K. pneumoniae ATCC 700603 ESBL-positive; experiment: combination disc test CDT-ESBL; type: cell-based; settings: Klebsiella pneumoniae, ATCC700603; agent 0.3 mg per disc; read-out: Diameter of inhibition zone, CAZ-30 disc with agent
B. subtilis ATCC 6633 = experiment: direct antimicrobial activity (disc-diffusion); type: cell-based; settings: Bacillus subtilis, ATCC6633; 0.4 mg per disc, 9 mm disc (linezolid 0.03 mg, 6 mm disc); - no zone; read-out: Diameter of inhibition zone
In short: (§1)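 Disc-diffusion (0.4 mg compound per disc, DMSO solutions), MIC, and MBC for bacteria or MFC for yeasts, run per EUCAST and CLSI recommendations. References: nitrofurantoin for Gram-negative rods, linezolid for Gram-positive bacteria, fluconazole for fungi.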

[2] = test system: S. epidermidis ATCC 12228; experiment: direct antimicrobial activity (disc-diffusion, MIC, MBC); type: cell-based; settings: Staphylococcus epidermidis, ATCC12228; for zone of inhibition at 0.4 mg/disc: 0.4 mg per disc, 9 mm disc (linezolid 0.03 mg, 6 mm disc), - no zone, read-out: Diameter of inhibition zone
In short: as §1

E. faecalis ATCC 29212 = experiment: as above; type: cell-based; settings: Enterococcus faecalis, ATCC29212
In short: as §1

[3] = test system: S. aureus ATCC 43300 MRSA; experiment: as above; type: cell-based; settings: Staphylococcus aureus; for zone of inhibition at 0.4 mg/disc: 0.4 mg per disc, 9 mm disc (linezolid 0.03 mg, 6 mm disc), - no zone, read-out: Diameter of inhibition zone
In short: as §1

S. aureus ATCC 6538P = experiment: as above; type: cell-based; settings: Staphylococcus aureus, ATCC6538P; for zone of inhibition at 0.4 mg/disc: 0.4 mg per disc, 9 mm disc (linezolid 0.03 mg, 6 mm disc), - no zone, read-out: Diameter of inhibition zone
In short: as §1

E. faecium ATCC 6057 = experiment: as above; type: cell-based; settings: Enterococcus faecium, ATCC6057; for zone of inhibition at 0.4 mg/disc: 0.4 mg per disc, 9 mm disc (linezolid 0.03 mg, 6 mm disc), - no zone, read-out: Diameter of inhibition zone
In short: as §1

[4] = test system: E. coli 77 CMY-2-positive; experiment: checkerboard microdilution, antibiotic plus tested agent; type: cell-based, Escherichia coli
In short: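 β-lactam 1–64 mg/L × agent/PBA 4–16 mg/L checkerboard; meropenem vs carbapenemase producers, ceftazidime vs AmpC producer; imipenem, ertapenem added for selected agents. Readout: combination MICs, FICI (average and lowest); off-scale MICs taken as next doubling.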

[5] = test system: E. coli 76 KPC-2-positive; experiment: as above; type: cell-based, Escherichia coli
In short: (§2)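 Chequerboard layout: tested agent in three two-fold steps (4–16 mg/L) crossed with seven β-lactam dilutions (1–64 mg/L), meropenem for KPC strains and ceftazidime for the cAmpC strain. FICI from first non-growth wells, off-scale MICs raised one doubling; ≤0.5 counts as synergy, >4 antagonism.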

[6] = test system: K. pneumoniae 81 KPC-3-positive; experiment: as above; type: cell-based, Klebsiella pneumoniae
In short: as §2

[7] = test system: K. pneumoniae 83 KPC-3-positive, CTX-M-3-positive; experiment: as above; type: cell-based, Klebsiella pneumoniae
In short: as §2

[8] = test system: K. pneumoniae ATCC BAA-1705 KPC-2-positive; experiment: as above; type: cell-based, Klebsiella pneumoniae
In short: as §2

SMILES: OB(O)c1ccccc1S [7c, 2-mercaptophenylboronic acid]
zone of inhibition at 300 µg/disc [1]: 15 mm
zone of inhibition at 0.4 mg/disc (B. subtilis ATCC 6633): 26 mm
MIC [2]: 12.5 µg/mL (≈ 81.2 µM)
zone of inhibition at 0.4 mg/disc [2]: 30 mm
MIC (E. faecalis ATCC 29212): 25 µg/mL (≈ 162 µM)
zone of inhibition at 0.4 mg/disc (E. faecalis ATCC 29212; 0.4 mg per disc, 9 mm disc (linezolid 0.03 mg, 6 mm disc), - no zone, read-out: Diameter of inhibition zone): 23 mm
MIC [3]: 25 µg/mL (≈ 162 µM)
zone of inhibition at 0.4 mg/disc [3]: 22 mm
MIC (S. aureus ATCC 6538P): 12.5 µg/mL (≈ 81.2 µM)
zone of inhibition at 0.4 mg/disc (S. aureus ATCC 6538P): 23 mm
MIC (E. faecium ATCC 6057): 12.5 µg/mL (≈ 81.2 µM)
zone of inhibition at 0.4 mg/disc (E. faecium ATCC 6057): 25 mm

SMILES: OB(O)c1ccc(B(O)O)c(B(O)O)c1 [4b, benzene-1,2,4-triboronic]
zone of inhibition at 300 µg/disc [1]: 14 mm
Average FICI with ceftazidime [4]: 0.43
The lowest FICI with ceftazidime [4]: 0.27
zone of inhibition at 0.4 mg/disc (B. subtilis ATCC 6633): 18 mm
MIC [2]: 200 µg/mL (≈ 954 µM)
zone of inhibition at 0.4 mg/disc [2]: 20 mm
MIC (E. faecalis ATCC 29212): 200 µg/mL (≈ 954 µM)
MIC [3]: 200 µg/mL (≈ 954 µM)
MIC (S. aureus ATCC 6538P): 25 µg/mL (≈ 119 µM)
zone of inhibition at 0.4 mg/disc (S. aureus ATCC 6538P): 20 mm
MIC (E. faecium ATCC 6057): 200 µg/mL (≈ 954 µM)

SMILES: OB(O)c1cccc(B(O)O)c1 [2a]
zone of inhibition at 300 µg/disc [1]: 16 mm
Average FICI with ceftazidime [4]: 0.22
The lowest FICI with ceftazidime [4]: 0.15
zone of inhibition at 0.4 mg/disc (B. subtilis ATCC 6633): 18 mm
MIC [2]: 200 µg/mL (≈ 1210 µM)
zone of inhibition at 0.4 mg/disc [2]: 21 mm
MIC (E. faecalis ATCC 29212): 200 µg/mL (≈ 1210 µM)
MIC [3]: 400 µg/mL (≈ 2410 µM)
MIC (S. aureus ATCC 6538P): 100 µg/mL (≈ 603 µM)
zone of inhibition at 0.4 mg/disc (S. aureus ATCC 6538P): 20 mm
MIC (E. faecium ATCC 6057): > 400 µg/mL

The next lines start with results.

MIC [2]: 400 µg/mL (≈ 2330 µM)
MIC (E. faecalis ATCC 29212): 100 µg/mL (≈ 582 µM)
MIC [3]: 400 µg/mL (≈ 2330 µM)
MIC (S. aureus ATCC 6538P): 100 µg/mL (≈ 582 µM)
MIC (E. faecium ATCC 6057): > 400 µg/mL
SMILES: OB(O)c1ccsc1B(O)O [5a, thiophene-2,3-diboronic acid]
zone of inhibition at 300 µg/disc [1]: 16 mm
Average FICI with ceftazidime [4]: 0.43
The lowest FICI with ceftazidime [4]: 0.27
zone of inhibition at 0.4 mg/disc (B. subtilis ATCC 6633): 15 mm
zone of inhibition at 0.4 mg/disc [2]: 13 mm

MIC [2]: 100 µg/mL (≈ 544 µM)
MIC (E. faecalis ATCC 29212): 400 µg/mL (≈ 2180 µM)
MIC [3]: 400 µg/mL (≈ 2180 µM)
MIC (S. aureus ATCC 6538P): 200 µg/mL (≈ 1090 µM)
MIC (E. faecium ATCC 6057): 400 µg/mL (≈ 2180 µM)
SMILES: OB(O)c1ccc(F)cc1B(O)O [3c]
zone of inhibition at 300 µg/disc [1]: 16 mm
Average FICI with ERT [5]: 0.43
Average FICI with IMI [5]: 0.22
Average FICI with MEM [5]: 0.43
The lowest FICI with ERT [5]: 0.27
The lowest FICI with IMI [5]: 0.15
The lowest FICI with MEM [5]: 0.27
zone of inhibition at 0.4 mg/disc (B. subtilis ATCC 6633): 18 mm
Average FICI with ERT [6]: 0.22
Average FICI with IMI [6]: 0.18
Average FICI with MEM [6]: 0.18
The lowest FICI with ERT [6]: 0.15
The lowest FICI with IMI [6]: 0.14
The lowest FICI with MEM [6]: 0.14
Average FICI with ERT [7]: 0.43
Average FICI with IMI [7]: 0.35
Average FICI with MEM [7]: 0.22
The lowest FICI with ERT [7]: 0.27
The lowest FICI with IMI [7]: 0.26
The lowest FICI with MEM [7]: 0.15
Average FICI with ERT [8]: 0.43
Average FICI with IMI [8]: 0.35
Average FICI with MEM [8]: 0.51
The lowest FICI with ERT [8]: 0.27
The lowest FICI with IMI [8]: 0.26
The lowest FICI with MEM [8]: 0.51
zone of inhibition at 0.4 mg/disc [2]: 24 mm
zone of inhibition at 0.4 mg/disc [3]: 11 mm
zone of inhibition at 0.4 mg/disc (S. aureus ATCC 6538P): 13 mm
zone of inhibition at 0.4 mg/disc (E. faecium ATCC 6057): 12 mm
